This note sets out measurements from patent US12624044B2, “SMARCA degraders and uses thereof” (Kymera Therapeutics, Inc., priority 2019, dated 2026).

SMILES strings stand for the structures. Where a name gives a salt, the structure may show the parent alone.

The test concerns the target SMARCA2 (Homo sapiens, UniProt P51531). Nature of the test: MSD SMARCA2 degradation in NCI-H1299 cell line (24 h). The class given is cell-based. The arrangement: HC: NCI-H1299 cells treated with DMSO; host or cells: NCI-H1299. The conditions noted are these: for Dmax: NCI-H1299, NCI-H1299 cells; for DC50: NCI-H1299 cells, read-out: SMARCA2 MSD H1299 degradation 24 h: External Abs-DC50. The protocol:
Example 32. MSD SMARCA2 Degradation in […] Cell Line
Cell Culture: Cells were cultured in exponential growth phase.
Compound Preparation and Treatment: NCI-H1299 cells were seeded into the 96-well plate at 4.0*10^4 cells per 100 ul per well. Incubate the plate in the incubator overnight. The next day, compounds were diluted to designed stock concentration by TECAN, then perform a 3 fold, 9-point dilution via transferring 15 uL compound into 30 μL DMSO using Apricot. 200 nL diluted compound from compound source plate were transferred into the 96-intermediate plate as designated by using Echo550, followed with 100 ul culture medium to make the 2× compound solution. Cell plate were changed with 80 ul of fresh culture medium and 80 ul of 2× compound solution was added into the well to achieve the final designed concentration. Cell plate was then shaken at 720 rpm for 5 min and incubated for 24 hours in the incubator.
Sample Preparation: Media was aspirated from the cultures and the plate was washed with PBS twice. 60 ul of pre-chilled PIPA lysis buffer (Boston BioProducts BP-115D) with protease inhibitor were directly added into the well to lyze the cells for 20 minutes at 4° C. Cell lysates were collected.
MSD Procedure: The MSD plate was coated with 40 ul cell lysate and incubated at 4° C. overnight. The next day, the MSD coated bare plate was washed 3 times with 150 ul 1×TBST per well, blocked with 150 ul of blocking buffer per well, and shaken for 1 hour at RT, 600 rpm. Blocking buffer was 3% Blocker A in TBST. MSD plate was then washed 3 times with 150 ul 1×TBST per well and Primary Detection antibody (Rabbit anti-SMARCA2/BRM antibody, 100 μg/ml, ab223735) was added to a final [conc.]: 0.3 ug/ml, 25 ul/well and shaken for 1 hour at RT, 600 rpm. Antibody was prepared in Antibody Detection buffer (1% Blocker A in 1×TBST). The MSD plate was then washed 3 times with 150 ul 1×TBST per well. Secondary Detection antibody (SULFO-TAG anti-species antibody) was then added to a final [conc.]: 1 ug/ml, 25 ul/well, and shaken for 1 hour at RT, 600 rpm. Antibodies were prepared in Antibody Detection buffer (1% Blocker A in 1×TBST). MSD plate was washed 3 times with 150 ul 1×TBST per well and 2×MSD reading buffer was added, 150 ul per well, and diluted from 4× with water. MSD instrument was then read.
Data Analysis: The percentage of relative level of SMARCA2 level was calculated following equation below.
LC: A2780, SMARCA2 negative cells. HC: NCI-H1299 cells treated with DMSO.
The letter codes for the percentage of SMARCA2 degradation after 24 hours (Dmax %) include: A (>90% degradation), B (>70-90 degradation), C (50-70 degradation), and D (<50% degradation).

SMARCA2, sequence (P51531 whole entry): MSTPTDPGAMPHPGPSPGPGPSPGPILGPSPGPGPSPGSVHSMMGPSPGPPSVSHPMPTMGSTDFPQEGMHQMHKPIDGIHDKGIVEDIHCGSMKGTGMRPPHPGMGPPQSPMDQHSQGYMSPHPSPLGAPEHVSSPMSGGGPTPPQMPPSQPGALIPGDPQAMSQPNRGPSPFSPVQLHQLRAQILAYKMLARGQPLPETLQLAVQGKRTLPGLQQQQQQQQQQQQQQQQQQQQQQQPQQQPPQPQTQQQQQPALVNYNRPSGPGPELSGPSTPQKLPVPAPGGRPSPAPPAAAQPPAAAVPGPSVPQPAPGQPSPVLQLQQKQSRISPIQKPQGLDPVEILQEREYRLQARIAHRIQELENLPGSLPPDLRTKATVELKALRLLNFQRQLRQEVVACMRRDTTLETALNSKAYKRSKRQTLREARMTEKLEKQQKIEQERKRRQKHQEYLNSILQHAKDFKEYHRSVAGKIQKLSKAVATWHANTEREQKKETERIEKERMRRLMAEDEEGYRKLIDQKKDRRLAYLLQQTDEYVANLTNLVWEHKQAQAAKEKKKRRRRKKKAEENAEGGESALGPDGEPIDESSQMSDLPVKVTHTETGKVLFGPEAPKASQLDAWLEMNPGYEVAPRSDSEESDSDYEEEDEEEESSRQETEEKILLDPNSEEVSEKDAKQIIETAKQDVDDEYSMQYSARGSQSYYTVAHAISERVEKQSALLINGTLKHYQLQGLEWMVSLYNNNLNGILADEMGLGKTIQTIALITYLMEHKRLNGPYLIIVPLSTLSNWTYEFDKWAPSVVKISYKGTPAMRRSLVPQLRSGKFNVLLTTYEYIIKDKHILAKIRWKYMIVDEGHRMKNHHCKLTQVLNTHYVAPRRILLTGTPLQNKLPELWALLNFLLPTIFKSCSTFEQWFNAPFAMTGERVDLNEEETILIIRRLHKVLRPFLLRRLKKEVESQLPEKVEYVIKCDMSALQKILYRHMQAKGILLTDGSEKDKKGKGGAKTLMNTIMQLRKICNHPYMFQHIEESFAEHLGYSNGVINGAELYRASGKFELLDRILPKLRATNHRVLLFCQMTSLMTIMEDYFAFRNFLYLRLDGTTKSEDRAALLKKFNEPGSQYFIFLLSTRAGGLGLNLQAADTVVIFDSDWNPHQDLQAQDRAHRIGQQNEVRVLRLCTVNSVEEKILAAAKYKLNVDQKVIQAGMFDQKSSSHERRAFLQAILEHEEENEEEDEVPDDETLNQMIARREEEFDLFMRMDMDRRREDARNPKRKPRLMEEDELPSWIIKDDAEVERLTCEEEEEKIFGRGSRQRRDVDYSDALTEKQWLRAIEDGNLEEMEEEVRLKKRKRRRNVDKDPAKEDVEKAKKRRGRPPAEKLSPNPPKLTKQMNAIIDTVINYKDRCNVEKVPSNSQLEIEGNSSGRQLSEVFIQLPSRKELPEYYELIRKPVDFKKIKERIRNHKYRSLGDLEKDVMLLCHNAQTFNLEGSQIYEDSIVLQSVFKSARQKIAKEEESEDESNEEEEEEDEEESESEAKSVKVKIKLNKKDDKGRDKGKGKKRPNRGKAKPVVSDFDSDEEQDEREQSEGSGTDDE

For `Cn1c(=O)n(C2CCC(=O)NC2=O)c2ccc(CCCCN3CCN(Cc4ccc(-c5cc(-c6ccccc6O)nnc5N)cc4)CC3)cc21` (centres unmarked) [I-154], the greatest degradation seen (Dmax) is less than 50% and the DC50 is greater than 1000 nM. On the same counts, the results for `Cn1c(=O)n(C2CCC(=O)NC2=O)c2ccc(CCCCCCCCCCCOc3cccc(CN4CCN(c5cc(-c6ccccc6O)nnc5N)CC4)c3)cc21` (centres unmarked) [I-145] are less than 50% and greater than 1000 nM. Taken in the same sequence, the figures for `Cn1c(=O)n(C2CCC(=O)NC2=O)c2cccc(CCCCc3cn(Cc4cccc(N5C[C@H]6C[C@@H]5CN6/C=C/C(=O)c5ccccc5O)n4)nn3)c21` (some centres unmarked) [I-49] were 70 to 90% and 100 to 500 nM. With `Cn1c(=O)n(C2CCC(=O)NC2=O)c2ccc(CN3CC4(CCN(Cc5cnc(N6C7CCC6CN(c6cc(-c8ccccc8O)nnc6N)C7)nc5)CC4)C3)cc21` (centres unmarked) [I-166], the maximal degradation (Dmax) was greater than 90% and the DC50 was less than 100 nM. Taken in the same sequence, the figures for `COc1cc(C(=O)NCCCCCNCc2ccc(N3CCN(c4cc(-c5ccccc5O)nnc4N)CC3)cc2)ccc1NC(=O)[C@@H]1N[C@@H](CC(C)(C)C)[C@](C#N)(c2ccc(Cl)cc2F)[C@H]1c1cccc(Cl)c1F` [I-237] were less than 50% and greater than 1000 nM. For the molecule `COc1cc(C(=O)NCCCNCc2ccc(N3CCN(c4cc(-c5ccccc5O)nnc4N)CC3)cc2)ccc1NC(=O)[C@@H]1N[C@@H](CC(C)(C)C)[C@](C#N)(c2ccc(Cl)cc2F)[C@H]1c1cccc(Cl)c1F` [I-238, (2R,3S,4R,5S)—N-(4-((3-((4-(4-(3-amino-6-(2-hydroxyphenyl)pyridazin-4-yl)piperazin-1-yl)benzyl)amino)propyl)carbamoyl)-2-methoxyphenyl)-3-(3-chloro-2-fluorophenyl)-4-(4-chloro-2-fluorophenyl)-4-cyano-5-neopentylpyrrolidine-2-carboxamide hydrochloride], the DC50 is greater than 1000 nM. In the case of `Cn1c(=O)n(C2CCC(=O)NC2=O)c2ccc(CNCCCCCc3cn(Cc4cccc(N5C[C@H]6C[C@@H]5CN6/C=C/C(=O)c5ccccc5O)n4)nn3)cc21` (some centres unmarked) [I-76], the Dmax was less than 50% and the 50% degradation concentration (DC50) was greater than 1000 nM. In the case of `Cc1ncsc1-c1ccc(CNC(=O)[C@@H]2C[C@@H](O)CN2C(=O)[C@@H](NC(=O)COCCOCCOCCOCCNC(=O)CCCOc2cccc(N3C[C@H]4C[C@@H]3CN4/C=C/C(=O)c3ccccc3O)n2)C(C)(C)C)cc1` [I-201], the half-maximal degradation concentration (DC50) was greater than 1000 nM. `Cc1ncsc1-c1ccc(CNC(=O)[C@@H]2C[C@@H](O)CN2C(=O)[C@@H](NC(=O)COCCOCCOCCOCCOCCNC(=O)CCCCCCCCOc2ccc(N3C[C@H]4C[C@@H]3CN4/C=C/C(=O)c3ccccc3O)nc2)C(C)(C)C)cc1` [I-230]: the 50% degradation concentration (DC50) is greater than 1000 nM. Regarding `Cn1c(=O)n(C2CCC(=O)NC2=O)c2ccc(CCCCOCCCCNCc3ccc(N4CCN(c5cc(-c6ccccc6O)nnc5N)CC4)cc3)cc21` (centres unmarked) [I-128], the Dmax is greater than 90% and the DC50 is less than 100 nM. On to `Cn1c(=O)n(C2CCC(=O)NC2=O)c2ccc(CCCCCN3CCCC(n4cc(-c5cc(-c6ccccc6O)nnc5N)cn4)C3)cc21` (centres unmarked) [I-179], for which the Dmax lay within 50 to 70% and the DC50 lay within 100 to 500 nM.

In the case of `Cn1c(=O)n(C2CCC(=O)NC2=O)c2cccc(CCCCCCCOc3ccc(CN4CCN(c5cc(-c6ccccc6O)nnc5N)CC4)cc3)c21` (centres unmarked) [I-94], the maximal degradation (Dmax) lay within 50 to 70% and the DC50 is greater than 1000 nM. With `Cn1c(=O)n(C2CCC(=O)NC2=O)c2ccc(CCCOCCOCCOCCNC(=O)CCCOc3cccc(N4C[C@H]5C[C@@H]4CN5/C=C/C(=O)c4ccccc4O)n3)cc21` (some centres unmarked) [I-26], the DC50 was greater than 1000 nM. On to `Cn1c(=O)n(C2CCC(=O)NC2=O)c2ccc(CCCOCCN3CCN(Cc4ccc(-c5cc(-c6ccccc6O)nnc5N)cc4)CC3)cc21` (centres unmarked) [I-105, 3-[5-[3-[2-[4-[[4-[3-amino-6-(2-hydroxyphenyl)pyridazin-4-yl]phenyl]methyl]piperazin-1-yl]ethoxy]propyl]-3-methyl-2-oxo-benzimidazol-1-yl]piperidine-2,6-dione], for which the maximal degradation (Dmax) is less than 50% and the half-maximal degradation concentration (DC50) is greater than 1000 nM. Take `Cn1c(=O)n(C2CCC(=O)NC2=O)c2cccc(CCCOCCOCCOc3cccc(N4C[C@H]5C[C@@H]4CN5/C=C/C(=O)c4ccccc4O)n3)c21` (some centres unmarked) [I-32]: the 50% degradation concentration (DC50) is greater than 1000 nM. `Cn1c(=O)n(C2CCC(=O)NC2=O)c2ccc(CCCOCCCOCCN3CCN(Cc4ccc(-c5cc(-c6ccccc6O)nnc5N)cc4)CC3)cc21` (centres unmarked) [I-136]: the maximal degradation (Dmax) was 50 to 70% and the DC50 lay within 100 to 500 nM. As to `O=C1CCC(N2C(=O)c3cccc(OCCCc4cn(CCCc5cccc(N6C[C@H]7C[C@@H]6CN7/C=C/C(=O)c6ccccc6O)n5)nn4)c3C2=O)C(=O)N1` (some centres unmarked) [I-70], the Dmax fell in the range of 70 to 90% and the DC50 was greater than 1000 nM.

For the molecule `Cn1c(=O)n(C2CCC(=O)NC2=O)c2cccc(CNCCCc3cn(Cc4cccc(N5C[C@H]6C[C@@H]5CN6/C=C/C(=O)c5ccccc5O)n4)nn3)c21` (some centres unmarked) [I-79], the greatest degradation seen (Dmax) was less than 50% and the DC50 was greater than 1000 nM.

For `CC(c1ccc(C(=O)NCCOCCOCCOCCOCCNc2cccc3c2C(=O)N(C2CCC(=O)NC2=O)C3=O)cc1)n1cc(-c2cc(-c3ccccc3O)nnc2N)cn1` (centres unmarked) [I-10], the DC50 is greater than 1000 nM. On to `CN[C@@H](C)C(=O)N[C@H](C(=O)N1Cc2cc(OCCOCCOCCOCCOCCOCCNC(=O)c3ccc(C(C)n4cc(-c5cc(-c6ccccc6O)nnc5N)cn4)cc3)ccc2C[C@H]1C(=O)N[C@@H]1CCCc2ccccc21)C(C)(C)C` (some centres unmarked) [I-206], for which the DC50 is greater than 1000 nM. Take `CN(Cc1ccc2c(c1)n(C)c(=O)n2C1CCC(=O)NC1=O)C1CCN(Cc2cnc(N3C4CCC3CN(c3cc(-c5ccccc5O)nnc3N)C4)nc2)CC1` (centres unmarked) [I-164, 3-(5-(((1-((2-(3-(3-amino-6-(2-hydroxyphenyl)pyridazin-4-yl)-3,8-diazabicyclo[3.2.1]octan-8-yl)pyrimidin-5-yl)methyl)piperidin-4-yl)(methyl)amino)methyl)-3-methyl-2-oxo-2,3-dihydro-1H-benzo[d]imidazol-1-yl)piperidine-2,6-dione hydrogen chloride]: the Dmax is greater than 90% and the DC50 was less than 100 nM. Take `Cc1ncsc1-c1ccc(CNC(=O)[C@@H]2C[C@@H](O)CN2C(=O)[C@@H](NC(=O)COCCOCCOCCNC(=O)c2ccc(C(C)n3cc(-c4cc(-c5ccccc5O)nnc4N)cn3)cc2)C(C)(C)C)cc1` (some centres unmarked) [I-224]: the DC50 was greater than 1000 nM. In the case of `O=C1CCC(n2c(=O)n(CCCCCCCc3cn(Cc4cccc(N5C[C@H]6C[C@@H]5CN6/C=C/C(=O)c5ccccc5O)n4)nn3)c3ccccc32)C(=O)N1` (some centres unmarked) [I-57], the Dmax is less than 50% and the DC50 is greater than 1000 nM. `Cn1c(=O)n(C2CCC(=O)NC2=O)c2cccc(CCCOC3CCN(Cc4ccc(N5CCN(c6cc(-c7ccccc7O)nnc6N)CC5)cc4)CC3)c21` (centres unmarked) [I-115]: the Dmax is 70 to 90% and the DC50 lay in the range of 100 to 500 nM.

In the case of `Cn1c(=O)n(C2CCC(=O)NC2=O)c2cccc(CNCCCCCc3cn(Cc4cccc(N5C[C@H]6C[C@@H]5CN6/C=C/C(=O)c5ccccc5O)n4)nn3)c21` (some centres unmarked) [I-81], the Dmax is less than 50% and the half-maximal degradation concentration (DC50) was greater than 1000 nM. Turning to `Cc1ncsc1-c1ccc(CNC(=O)[C@@H]2C[C@@H](O)CN2C(=O)[C@@H](NC(=O)COCCOCCOCCOCCNC(=O)CCCCCCCCOc2ccnc(N3C[C@H]4C[C@@H]3CN4/C=C/C(=O)c3ccccc3O)c2)C(C)(C)C)cc1` [I-223], the DC50 is greater than 1000 nM. With `Cn1c(=O)n(C2CCC(=O)NC2=O)c2cccc(CCCCCCCOc3cccc(CN4CCN(c5cc(-c6ccccc6O)nnc5N)CC4)c3)c21` (centres unmarked) [I-99], the maximal degradation (Dmax) was less than 50% and the DC50 is greater than 1000 nM.

On to `CC(c1ccc(C(=O)NCCOCCOCCOCCOCCOCCNc2cccc3c2C(=O)N(C2CCC(=O)NC2=O)C3=O)cc1)n1cc(-c2cc(-c3ccccc3O)nnc2N)cn1` (centres unmarked) [I-11], for which the DC50 was greater than 1000 nM. Regarding `Cn1c(=O)n(C2CCC(=O)NC2=O)c2ccc(CCCCCCCCN3CCC(Cn4cc(-c5cc(-c6ccccc6O)nnc5N)cn4)CC3)cc21` (centres unmarked) [I-147], the Dmax lay in the range of 70 to 90% and the 50% degradation concentration (DC50) lay within 100 to 500 nM. On the same counts, the results for `Cn1c(=O)n(C2CCC(=O)NC2=O)c2ccc(CN3CCN(CCO[C@H]4C[C@H](NCc5ccc(N6CCN(c7cc(-c8ccccc8O)nnc7N)CC6)cc5)C4)CC3)cc21` (some centres unmarked) [I-131] are 70 to 90% and greater than 1000 nM.

As a reminder, the Dmax is the largest share of the target that was removed. Higher therefore signals deep degradation. Usually DC50 stands for the concentration at which degradation of the target reaches its halfway point.
